Nc1cc(C(=O)O)ccc1C(=O)O
solubility (mole fraction)
Settings | in ethanol | in isopentanol | in isopropanol | in methanol | in n-butanol | in n-propanol | in sec-butanol | in tert-butanol
303.15 K | 0.0349 | 0.00536 | 0.0211 | 0.0685 | 0.00721 | – | 0.00989 | 0.0216
303.25 K | – | – | – | – | – | 0.0137 | – | –
308.15 K | 0.0383 | 0.00583 | 0.0236 | – | 0.00854 | – | 0.0119 | 0.0237
308.75 K | – | – | – | – | – | 0.0165 | – | –
313.15 K | 0.0422 | 0.00643 | – | 0.0794 | 0.0098 | – | 0.0139 | 0.0268
313.75 K | – | – | – | – | – | 0.0193 | – | –
318.15 K | 0.0461 | – | 0.0293 | 0.0853 | 0.0112 | 0.0223 | – | 0.0293
323.15 K | 0.051 | 0.00764 | 0.0326 | 0.0917 | 0.0131 | 0.0256 | 0.0192 | 0.0315
328.15 K | 0.0552 | – | – | 0.0982 | – | 0.0293 | 0.0222 | 0.0351
333.15 K | 0.06 | 0.00895 | – | 0.105 | 0.0168 | 0.0334 | – | 0.0375
338.15 K | 0.0655 | 0.00972 | 0.0441 | 0.112 | 0.0189 | 0.0392 | 0.0297 | 0.0421
